From US20210392895A1, “NOVEL OXADIAZOLES” (PI INDUSTRIES LIMITED, priority 2018, published 2021)
Counter-ions that a name gives are not always drawn.

What was measured:
Alternaria solani = Alternaria solani (early blight of tomato/potato) in vitro test, radial growth on Potato Dextrose Agar; type: cell-based; details: 168 h, compared to the untreated check, radial growth after seven days, read-out: control
Pyricularia oryzae = test: microbe, parasite or virus in culture; type: cell-based; details: 168 h, read-out: control
Phakopsora pachyrhizi = Phakopsora pachyrhizi test in soybean (greenhouse, preventive activity, disease severity rating); type: in vivo; details: preventive spray on soybean, compared to the untreated check
Outline: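 Greenhouse-raised young soybean plants sprayed with compound at stated rates, then inoculated one day later with 2.1×10^6 P. pachyrhizi spores and held at 25° C, 90% RH. Disease severity (0-100%) rated visually 3, 7, 10 and 15 days after application; % control calculated versus untreated plants.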

SMILES	inhibition of growth at 300 ppm (Alternaria solani) [%]	inhibition of growth at 300 ppm (Pyricularia oryzae) [%]	pest or weed control at 500 ppm (Phakopsora pachyrhizi) [%]
O=C(c1cccc(F)c1)N1CCC(Oc2cccc(-c3noc(C(F)(F)F)n3)c2)C1 (stereo not shown) [Compound 133, (3-fluorophenyl)(3-(3-(5-(trifluoromethyl)-1,2,4-oxadiazol-3-yl)phenoxy)pyrrolidin-1-yl)methanone]	> 70	> 70	
FC(F)(F)c1nc(-c2ccc(N(c3ccc(-c4noc(C(F)(F)F)n4)cc3)C3CNC3)cc2)no1 [Compound 86, N,N-bis(4-(5-(trifluoromethyl)-1,2,4-oxadiazol-3-yl)phenyl)azetidin-3-amine Hydrochloride]	> 70		> 70
O=C(c1ccccc1F)N1CCC(Oc2cccc(-c3noc(C(F)(F)F)n3)c2)C1 (stereo not shown) [Compound 132, (2-fluorophenyl)(3-(3-(5-(trifluoromethyl)-1,2,4-oxadiazol-3-yl)phenoxy)pyrrolidin-1-yl)methanone]	> 70		
COc1cccc(CC(=O)N2CC[C@H](Oc3ccc(-c4noc(C(F)(F)F)n4)cc3)C2)c1 [Compound 24, (S)-2-(3-methoxyphenyl)-1-(3-(4-(5-(trifluoromethyl)-1,2,4-oxadiazol-3-yl)phenoxy)pyrrolidin-1-yl)ethan-1-one]	> 70		> 70
O=C(Cc1ccccc1)N1CC[C@H](Oc2ccc(-c3noc(C(F)(F)F)n3)cc2)C1 [Compound 11, (S)-2-phenyl-1-(3-(4-(5-(trifluoromethyl)-1,2,4-oxadiazol-3-yl)phenoxy)pyrrolidin-1-yl)ethan-1-one]		> 70	> 70
Cc1ccc(C(=O)N2CC(N(C)c3ccc(-c4noc(C(F)(F)F)n4)cc3)C2)cc1 [Compound 97, (3-(methyl(4-(5-(trifluoromethyl)-1,2,4-oxadiazol-3-yl)phenyl)amino)azetidin-1-yl)(p-tolyl)methanone]	> 70	> 70	
COc1cccc(C(=O)N2CC[C@H](Oc3ccc(-c4noc(C(F)(F)F)n4)cc3)C2)c1 [Compound 1, (S)-(3-methoxyphenyl)(3-(4-(5-(trifluoromethyl)-1,2,4-oxadiazol-3-yl)phenoxy)pyrrolidin-1-yl)methanone]	> 70		> 70
O=C(c1ccccc1F)N1CC[C@H](Oc2ccc(-c3noc(C(F)(F)F)n3)cn2)C1 [Compound 45, (S)-(2-fluorophenyl)(3-((5-(5-(trifluoromethyl)-1,2,4-oxadiazol-3-yl)pyridin-2-yl)oxy)pyrrolidin-1-yl)methanone]		> 70	> 70
COc1ccc(C(=O)N2CC[C@H](Oc3ccc(-c4noc(C(F)(F)F)n4)cc3)C2)cn1 [Compound 56, (S)-(6-methoxypyridin-3-yl)(3-(4-(5-(trifluoromethyl)-1,2,4-oxadiazol-3-yl)phenoxy)pyrrolidin-1-yl)methanone]		> 70	> 70
COc1ccc(CC(=O)N2CC[C@H](Oc3ccc(-c4noc(C(F)(F)F)n4)cc3)C2)cc1OC [Compound 5, (S)-2-(3,4-dimethoxyphenyl)-1-(3-(4-(5-(trifluoromethyl)-1,2,4-oxadiazol-3-yl)phenoxy)pyrrolidin-1-yl)ethan-1-one]		> 70	> 70
O=C(c1ccccc1F)N1CC[C@H](Oc2ccc(-c3noc(C(F)(F)F)n3)cc2)C1 [Compound 6, (S)-(2-fluorophenyl)(3-(4-(5-(trifluoromethyl)-1,2,4-oxadiazol-3-yl)phenoxy)pyrrolidin-1-yl)methanone]	> 70		
CCS(=O)(=O)N1CC[C@H](Oc2ccc(-c3noc(C(F)(F)F)n3)cc2F)C1 [Compound 61, (S)-3-(4-((1-(ethylsulfonyl)pyrrolidin-3-yl)oxy)-3-fluorophenyl)-5-(trifluoromethyl)-1,2,4-oxadiazole]		> 70	> 70
